The record followed here is patent US20150368213A1, “Novel Inhibitors of System Xc-” (The University of Montana, Missoula, MT, priority 2014, published 2015).

This experiment deals with T1, System xc− (Sxc−, glutamate/cystine antiporter) (Homo sapiens, UniProt Q9UPY5).
T1 construct: A number of glioma cell lines, including SNB-19, express markedly higher levels of Sxc^−; host or cells: SNB-19 human glioma cells
T1 sequence (Q9UPY5 1-501): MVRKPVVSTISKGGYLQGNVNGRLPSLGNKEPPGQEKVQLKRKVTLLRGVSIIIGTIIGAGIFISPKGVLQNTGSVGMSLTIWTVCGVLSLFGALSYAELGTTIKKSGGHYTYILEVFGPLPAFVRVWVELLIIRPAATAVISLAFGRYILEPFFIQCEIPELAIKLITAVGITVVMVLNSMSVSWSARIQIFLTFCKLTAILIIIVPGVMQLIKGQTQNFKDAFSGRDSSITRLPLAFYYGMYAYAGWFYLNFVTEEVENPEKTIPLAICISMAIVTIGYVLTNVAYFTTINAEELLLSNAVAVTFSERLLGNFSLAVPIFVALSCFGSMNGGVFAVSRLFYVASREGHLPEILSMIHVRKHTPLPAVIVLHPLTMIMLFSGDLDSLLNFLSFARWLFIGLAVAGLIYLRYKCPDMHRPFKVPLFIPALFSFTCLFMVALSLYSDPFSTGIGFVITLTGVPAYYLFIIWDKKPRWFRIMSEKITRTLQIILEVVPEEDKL
T1 sequence (P08195 1-529 partner): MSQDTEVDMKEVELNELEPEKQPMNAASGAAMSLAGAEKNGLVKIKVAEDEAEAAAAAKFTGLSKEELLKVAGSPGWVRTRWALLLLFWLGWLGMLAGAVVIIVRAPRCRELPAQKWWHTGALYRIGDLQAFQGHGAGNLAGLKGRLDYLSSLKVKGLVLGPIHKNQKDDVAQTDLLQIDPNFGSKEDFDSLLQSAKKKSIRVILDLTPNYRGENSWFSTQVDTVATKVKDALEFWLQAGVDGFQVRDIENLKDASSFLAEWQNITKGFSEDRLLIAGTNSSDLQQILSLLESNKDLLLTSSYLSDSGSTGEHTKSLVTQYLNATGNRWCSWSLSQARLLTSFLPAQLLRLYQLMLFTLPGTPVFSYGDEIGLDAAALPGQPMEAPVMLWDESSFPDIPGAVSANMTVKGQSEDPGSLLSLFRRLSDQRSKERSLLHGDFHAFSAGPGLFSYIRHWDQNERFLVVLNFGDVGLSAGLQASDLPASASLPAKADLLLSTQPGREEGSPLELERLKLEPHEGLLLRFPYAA
The experiment in a line: Inhibition of 3H-L-Glu uptake into SNB-19 glioma cells under Cl-dependent (Na-free) conditions. Format: cell-based. Conditions: for 3H-L-Glu Uptake (% control): 100 μM 3H-L-Glu, smaller number = greater inhibition; for inhibitory activity, ranking among compounds of Table 1: comment on Table 1. As to the method:
SNB-19 glioma cells, purchased from American Type Culture Collection (Manassas, Va.), were grown in DMEM/F-12 medium (pH 7.4) containing 1 mM pyruvate and 16 mM NaHCO3 and supplemented with 10% fetal calf serum. The cells were cultured in 150 cm^2 flasks (Corning) and maintained at 37° C. in a humidified atmosphere of 5% CO2. In the ^3H-L-Glu uptake experiments, cells were seeded in 12 well culture plates (Costar) at a density of 5×10^4 cells/well and maintained for 3 days until 80-90% confluent. Protein concentrations were determined by the bicinchoninic acid (BCA) method (Pierce).
Uptake of ^3H-L-Glu into cultured cells was quantified using a modification of the procedure of Martin and Shane as previously described by Patel et al. (supra). Briefly, after removal of culture media, wells were rinsed three times and pre-incubated in 1 ml Na^+-free HEPES buffered (pH 7.4) Hank's balanced salt solution (HBHS) at 30° C. for 5 min. The Nat free buffer contained: 137.5 mM choline Cl, 5.36 mM KCl, 0.77 mM KH2PO4, 0.71 mM MgSO^4.7H2O, 1.1 mM CaCl2, 10 mM D-glucose, and 10 mM HEPES. Uptake was initiated by aspiration of the pre-incubation buffer and the addition of a 500 gl aliquot of Na^+-free transport buffer containing ^3H-L-Glu (4-16 mCi/m1) mixed with L-Glu (10-500 μM, final concentration). In those assays that evaluated inhibitor activity, the 500 gl aliquot of transport buffer contained both the ^3H-L-Glu and potential inhibitors to ensure simultaneous addition. Following a 5 min incubation at 30° C., the assays were terminated by three sequential 1 ml washes with ice cold buffer after which the cells were dissolved in 1 ml of 0.4 M NaOH for 24 h. An aliquot (200 μl) was then transferred into a 5 ml glass scintillation vial and neutralized with the addition of 5 gl glacial acetic acid followed by 3.5 ml Liquiscint© scintillation fluid (National Diagnostics) to each sample. Incorporation of radioactivity was quantified by liquid scintillation counting (LSC, Beckman LS 6500). Values are reported as mean±S.E.M. and are corrected for non-specific uptake (e.g., leakage and binding) by subtracting the amount of ^3H-L-Glu accumulation at 4° C.
The inhibitory activity of the compounds was determined by quantifying the ability of the analogues to reduce the accumulation of ^3H-L-Glu into human SNB-19 glioblastoma cells under Cl-dependent (Na-free) conditions. A number of glioma cell lines, including SNB-19, express markedly higher levels of Sxc^− and reduced levels of the sodium-dependent excitatory amino acid transporters (“EAATs”) than do primary astrocytes, making them well suited for pharmacological assays (Ye et al., Compromised glutamate transport in human glioma cells: reduction-mislocalization of sodium-dependent glutamate transporters and enhanced activity of cystine-glutamate exchange, J Neurosci, 1999 Dec. 15, 19(24), 10767-77). The compounds of the invention were initially screened at a single concentration of substrate (100 μM ^3H-L-Glu) and isoxazole (500 μM) to confirm inhibitory activity. […] (The data are reported as % of control uptake, thus the smaller the number the greater the level of inhibition.)
A slope replot for 5-4-TFM-Benzyl-4-bis-TFM-HMICA is included in FIG. 3, (average Ki=3±1 μM, n=5). […] In the instance of 5-4-TFM-Benzyl-4-bis-TFM-HMICA the replot of I/Vmax,apparent vs. [I] was indeed linear and yielded a Ki of about 8 μM (plots not shown). […] As the identification of the di-substituted isoxazoles as noncompetitive inhibitors was unexpected, the kinetic data was also analyzed using the Eadie-Hofstee method as a second graphical approach.

[1] abbreviates: SNB-19 cells, 3H-L-Glu uptake, read-out: KI 3H-L-Glu Uptake.

Each structure is given as a SMILES string. Where two headings read alike, the source gives them in different places.

On to `C/C(=N\Nc1cc(C(F)(F)F)cc(C(F)(F)F)c1)c1c(C(=O)O)noc1Cc1ccc(C(F)(F)F)cc1` [5-4-TFM-Benzyl-4-bis-TFM-HMICA], for which the “pattern (mechanism) of inhibition” value (Michaelis-Menten, LWB and Eadie-Hofstee analyses, FIGS. 1-4) is “noncompetitive inhibition”. Also, the “3H-L-Glu Uptake (% control)” value (compound 100 μM, SNB-19 cells) came out at 14 % control. Moreover, the Ki reads like this: (replot of LWB graphs, plots not shown, read-out: Ki from 1/Vmax,apparent vs. [I] replot) about 8 µM; (slope replot (FIG. 3), n=5, read-out: average Ki from LWB slope vs. [I] replot) 3 ± 1 µM.

For `Cc1onc(-c2c3ccccc3c(Cl)c3ccccc23)c1C(=O)NC(Cc1cc(Br)c(O)c(Br)c1)C(=O)O` (centres unmarked) [AIM-DBT, 2-(3-(10-chloroanthracen-9-yl)-5-methylisoxazole-4-carboxamido)-3-(3,5-dibromo-4-hydroxyphenyl)propanoic acid], the “inhibitory activity, ranking among compounds of Table 1” value was “greatest inhibitory activity”. Further, under setting [1], the Ki came to 15 µM. In addition, the “3H-L-Glu Uptake (% control)” value (compound 100 μM, SNB-19 cells) was found to be 8 % control.

For `Cc1onc(-c2c(OCc3ccccc3)ccc3ccccc23)c1C(=O)N[C@@H](Cc1cc(Br)c(O)c(Br)c1)C(=O)O` [Compound 3ND-101, (2S)-2-(3-(2-(benzyloxy)naphthalen-1-yl)-5-methylisoxazole-4-carboxamido)-3-(3,5-dibromo-4-hydroxyphenyl)propanoic acid], the “inhibitory activity, ranking among compounds of Table 1” value is “greatest inhibitory activity”. Besides, the “3H-L-Glu Uptake (% control)” value (compound 100 μM, SNB-19 cells) is reported as 8 % control. The “3H-L-Glu Uptake (% control)” value (compound 500 μM, SNB-19 cells) was 1 % control.

As for `CN(C)c1cccc2c(S(=O)(=O)NC(Cc3cc(Br)c(O)c(Br)c3)C(=O)O)cccc12` (centres unmarked) [Danzyl-DBT, 3-(3,5-dibromo-4-hydroxyphenyl)-2-(5-(dimethylamino)naphthalene-1-sulfonamido)propanoic acid], under setting [1], the Ki is 25 µM. The “3H-L-Glu Uptake (% control)” value (compound 100 μM, SNB-19 cells) was 52 % control.

For the compound `Cc1onc(-c2cccc3ccccc23)c1C(=O)NC(Cc1cc(Br)c(O)c(Br)c1)C(=O)O` (centres unmarked) [LC-19, 3-(3,5-dibromo-4-hydroxyphenyl)-2-(5-methyl-3-(naphthalen-1-yl)isoxazole-4-carboxamido)propanoic acid], the “3H-L-Glu Uptake (% control)” value is 23 % control (compound 100 μM, SNB-19 cells) and 6 % control (compound 500 μM, SNB-19 cells).

On to `COc1ccc2ccccc2c1-c1noc(C)c1C(=O)NC(Cc1cc(Br)c(O)c(Br)c1)C(=O)O` (centres unmarked) [MOI-16, 3-(3,5-dibromo-4-hydroxyphenyl)-2-(5-methyl-3-(2-methoxynaphthalen-1-yl)isoxazole-4-carboxamido)propanoic acid], for which the “3H-L-Glu Uptake (% control)” value is on record as 32 % control (compound 100 μM, SNB-19 cells) and 8 % control (compound 500 μM, SNB-19 cells). Moreover, the “inhibition of the System Xc- antiporter, in words” value (statement in the crystal structure description) is “potent inhibitor”.
